# Laboratory results published in patent US8410144B2, “Substituted indolo-pyridinone compounds” (ArQule, Inc., priority 2009, dated 2013).
# Tests used:
# NCI-H1299 = assay: MTS assay, NCI-H1299 cells; assay type: cell-based; settings: Homo sapiens, 72 hours, read-out: NCI-H1299, MTS cell kill % inhibition
# In short: (§1)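 First, seed 3000 cells per well in low-serum (1% FBS) DMEM and culture 18 h. Next, add compounds prepared at 300× in DMSO and diluted 1:40 in DMEM; incubate 72 h. Finally, add MTS/PMS for 4 h and measure absorbance at 492 nm.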
# IGF-1R = IGF-1R (Homo sapiens, UniProt P08069); assay: IGFR1 activity assay (ELISA); assay type: biochemical; settings: read-out: IGF-1R, PCT INH (30 μM), ELISA
# Sequence of IGF-1R (P08069 31-1367): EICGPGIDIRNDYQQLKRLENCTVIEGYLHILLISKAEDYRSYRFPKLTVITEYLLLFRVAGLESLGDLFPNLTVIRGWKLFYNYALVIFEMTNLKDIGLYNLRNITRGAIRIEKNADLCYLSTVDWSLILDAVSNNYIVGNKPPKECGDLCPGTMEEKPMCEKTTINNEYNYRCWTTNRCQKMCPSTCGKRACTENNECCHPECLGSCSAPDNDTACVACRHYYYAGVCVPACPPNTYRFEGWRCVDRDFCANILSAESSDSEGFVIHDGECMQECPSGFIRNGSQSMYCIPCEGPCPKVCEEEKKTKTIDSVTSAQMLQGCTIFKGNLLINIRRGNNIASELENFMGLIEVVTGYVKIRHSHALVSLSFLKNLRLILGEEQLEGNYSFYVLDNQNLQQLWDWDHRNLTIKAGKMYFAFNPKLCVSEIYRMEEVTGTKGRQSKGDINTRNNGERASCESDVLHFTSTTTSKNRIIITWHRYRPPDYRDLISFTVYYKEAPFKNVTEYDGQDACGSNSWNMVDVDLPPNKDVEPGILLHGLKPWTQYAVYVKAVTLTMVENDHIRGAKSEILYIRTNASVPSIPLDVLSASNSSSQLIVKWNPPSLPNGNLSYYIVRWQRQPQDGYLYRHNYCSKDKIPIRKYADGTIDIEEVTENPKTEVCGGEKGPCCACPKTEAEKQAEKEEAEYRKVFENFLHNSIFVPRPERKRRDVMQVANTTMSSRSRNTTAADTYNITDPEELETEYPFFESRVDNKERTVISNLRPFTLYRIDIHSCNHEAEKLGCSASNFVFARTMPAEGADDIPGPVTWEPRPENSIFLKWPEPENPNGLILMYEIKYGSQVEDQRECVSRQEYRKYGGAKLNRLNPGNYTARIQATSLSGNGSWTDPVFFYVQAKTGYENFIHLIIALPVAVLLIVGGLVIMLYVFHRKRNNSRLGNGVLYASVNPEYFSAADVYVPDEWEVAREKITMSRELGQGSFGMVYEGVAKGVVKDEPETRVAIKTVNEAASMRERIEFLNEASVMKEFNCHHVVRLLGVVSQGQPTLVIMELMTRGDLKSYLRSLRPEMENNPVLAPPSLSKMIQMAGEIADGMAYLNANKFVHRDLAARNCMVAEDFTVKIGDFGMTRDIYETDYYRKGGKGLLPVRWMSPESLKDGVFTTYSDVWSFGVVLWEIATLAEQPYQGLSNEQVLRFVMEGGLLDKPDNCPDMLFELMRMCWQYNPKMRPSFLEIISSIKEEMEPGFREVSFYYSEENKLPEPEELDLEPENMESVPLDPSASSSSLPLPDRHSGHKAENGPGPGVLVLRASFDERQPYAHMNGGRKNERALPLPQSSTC
# In short: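 IGF1R (0.33 ng/μL final) phosphorylating Pyk-2 (0.05 ng/μL final) in buffer with 12.5 μM ATP, 10 mM MgCl2, 1 h room temperature. Product captured on streptavidin plates, detected with anti-phosphotyrosine and alkaline phosphatase secondary antibody, Attophos fluorescent readout.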
# DLD-1 = assay: MTS assay, DLD-1 cells; assay type: cell-based; settings: Homo sapiens, 72 hours, read-out: DLD-1, MTS cell kill % inhibition
# In short: as §1
# MDA-MB-231 = assay: MTS assay, MDA-MB-231 cells; assay type: cell-based; settings: Homo sapiens, 72 hours, read-out: MDA-MB-231, MTS cell kill % inhibition
# In short: as §1
# KATO III = assay: MTS assay, KATO III cells; assay type: cell-based; settings: Homo sapiens, 72 hours, read-out: KATO III, MTS cell kill % inhibition
# In short: as §1
Structure (SMILES),melting point,inhibition at 10 µM (NCI-H1299),inhibition at 30 µM (IGF-1R),inhibition at 10 µM (DLD-1),inhibition at 10 µM (MDA-MB-231),inhibition at 10 µM (KATO III)
"CCc1ccc(-c2c(-c3ccc[nH]c3=O)[nH]c3ccc(C(=O)NCCCN4CCOCC4)cc23)cc1 [Compound 65, 3-(4-ethylphenyl)-N-(3-morpholin-4-ylpropyl)-2-(2-oxo-1,2-dihydropyridin-3-yl)-1H-indole-5-carboxamide]",143 to 145 °C,80 to 100%,80 to 100%,80 to 100%,50 to 79%,80 to 100%
"COC(=O)c1ccc2[nH]c(-c3ccc[nH]c3=O)c(-c3ccc(-c4ccccc4)cc3)c2c1 [Compound 9, methyl 3-biphenyl-4-yl-2-(2-oxo-1,2-dihydropyridin-3-yl)-1H-indole-5-carboxylate]",> 300 °C,< 50%,< 50%,< 50%,< 50%,< 50%
"O=c1[nH]cccc1-c1[nH]c2ccccc2c1-c1ccccc1 [Compound 84, 3-(3-phenyl-1H-indol-2-yl)pyridin-2(1H)-one]",240 to 242 °C,50 to 79%,80 to 100%,50 to 79%,50 to 79%,80 to 100%
"O=C(Nc1ccccc1F)c1ccc2[nH]c(-c3ccc[nH]c3=O)c(-c3ccccc3)c2c1 [Compound 15, N-(2-fluorophenyl)-2-(2-oxo-1,2-dihydropyridin-3-yl)-3-phenyl-1H-indole-5-carboxamide]",> 300 °C,50 to 79%,80 to 100%,80 to 100%,50 to 79%,80 to 100%
"O=C(NCCCN1CCOCC1)c1ccc2[nH]c(-c3ccc[nH]c3=O)c(-c3ccccc3)c2c1 [Compound 1, N-(3-morpholin-4-ylpropyl)-2-(2-oxo-1,2-dihydropyridin-3-yl)-3-phenyl-1H-indole-5-carboxamide]",238 to 244 °C,80 to 100%,80 to 100%,80 to 100%,80 to 100%,80 to 100%
"O=c1[nH]cccc1-c1[nH]c2ccccc2c1C1CCN(Cc2cccc3ccccc23)CC1 [Compound 88, 3-{3-[1-(1-naphthylmethyl)piperidin-4-yl]-1H-indol-2-yl}pyridin-2(1H)-one]",205 to 206 °C,< 50%,< 50%,80 to 100%,80 to 100%,< 50%
"CN(Cc1cccnc1)C(=O)c1ccc2[nH]c(-c3ccc[nH]c3=O)c(-c3ccc(-c4ccccc4)cc3)c2c1 [Compound 33, 3-biphenyl-4-yl-N-methyl-2-(2-oxo-1,2-dihydropyridin-3-yl)-N-(pyridin-3-ylmethyl)-1H-indole-5-carboxamide]",92 to 97 °C,80 to 100%,< 50%,80 to 100%,80 to 100%,80 to 100%
"O=C(c1ccc2[nH]c(-c3ccc[nH]c3=O)c(-c3ccc(-c4ccccc4)cc3)c2c1)N1CCN(c2cnccn2)CC1 [Compound 45, 3-{3-biphenyl-4-yl-5-[(4-pyrazin-2-ylpiperazin-1-yl)carbonyl]-1H-indol-2-yl}pyridin-2(1H)-one]",289 to 296 °C,80 to 100%,50 to 79%,50 to 79%,80 to 100%,80 to 100%
"O=C(NCCCN1CCOCC1)c1ccc2[nH]c(-c3ccc[nH]c3=O)c(-c3cc4cccc5c4n3CCC5)c2c1 [Compound 8, 3-(5,6-dihydro-4H-pyrrolo[3,2,1-ij]quinolin-2-yl)-N-(3-morpholin-4-ylpropyl)-2-(2-oxo-1,2-dihydropyridin-3-yl)-1H-indole-5-carboxamide]",181 to 189 °C,80 to 100%,50 to 79%,80 to 100%,80 to 100%,80 to 100%
"O=C(c1ccc2[nH]c(-c3ccc[nH]c3=O)c(-c3ccc(-c4ccccc4)cc3)c2c1)N1CCN(c2ccccc2F)CC1 [Compound 36, 3-(3-biphenyl-4-yl-5-{[4-(2-fluorophenyl)piperazin-1-yl]carbonyl) -1H-indol-2-yl)pyridin-2(1H)-one]",137 to 144 °C,< 50%,< 50%,< 50%,50 to 79%,< 50%
"O=C(NCCOc1ccccc1)c1ccc2[nH]c(-c3ccc[nH]c3=O)c(-c3ccc(-c4ccccc4)cc3)c2c1 [Compound 51, 3-biphenyl-4-yl-2-(2-oxo-1,2-dihydropyridin-3-yl)-N-(2-phenoxyethyl)-1H-indole-5-carboxamide]",147 to 153 °C,< 50%,< 50%,< 50%,50 to 79%,< 50%
"CN(C)CCCNCc1ccc2[nH]c(-c3ccc[nH]c3=O)c(-c3ccc(-c4ccccc4)cc3)c2c1 [Compound 54, 3-[3-biphenyl-4-yl-5-({[3-(dimethylamino)propyl]amino}methyl)-1H-indol-2-yl]pyridin-2(1H)-one]",160 to 166 °C,< 50%,< 50%,50 to 79%,50 to 79%,< 50%
"O=C(NCCCN1CCOCC1)c1ccc2[nH]c(-c3ccc[nH]c3=O)c(-c3ccc(Cl)c(Cl)c3)c2c1 [Compound 59, 3-(3,4-dichlorophenyl)-N-(3-morpholin-4-ylpropyl)-2-(2-oxo-1,2-dihydropyridin-3-yl)-1H-indole-5-carboxamide]",135 to 138 °C,50 to 79%,50 to 79%,50 to 79%,< 50%,80 to 100%
